Assay results as given in patent publication US20070287180A1, “Linear Dna Fragment For Markerless Deletion, Novel Strain Having Inhibited Formation Of Biofilm And Preparation Method Thereof” (priority 2004, published 2007).

System: E. coli DEB31
Test: Antibiotics susceptibility of biofilm-grown cells, plate counting (modified Whiteley method)
Type: cell-based, Escherichia coli
Details: for antibiotic concentration at which the number of living E. coli DEB31 equals that of wild-type MG1655 at the standard concentration: 24 h biofilm, then 10 h antibiotic at 30° C., MG1655 standard concentration: ampicillin 50, streptomycin 30, rifampicin 150 μg/ml
Protocol: The antibiotics susceptibility of the variants was measured using the modified technique developed by Whiteley (Whiteley M., Nature, 413, 860, 2001). In other words, 96-well polystyrene plates containing 0.2 ml of LB culture were inoculated with the variants to be incubated for 24 hours to allow biofilm formation. Each well was added with various concentrations of antibiotics ranging from 0.25 μg to 64 μg and were incubated for 10 hours. The number of living cells was measured by plate counting method.
After incubating the variants in 96-well plates containing 200 μl of LB medium for 24 hours, the serial diluted antibiotics was added to each well at the following concentration ranges: ampicillin, from 0 to 128 μg/ml; streptomycin, from 0 to 64 μg/ml; and rifampicin, from 0 to 256 μg/ml. The cells were incubated for additional 10 hours at 30° C. after antibiotics addition. Then, the number of the living E. coli variants was counted using the standard plate counting method.

## CC1(C)S[C@@H]2[C@H](NC(=O)[C@H](N)c3ccccc3)C(=O)N2[C@H]1C(=O)O [ampicillin]
  antibiotic concentration at which the number of living E. coli DEB31 equals that of wild-type MG1655 at the standard concentration: 2 µg/mL

## CO[C@H]1/C=C/O[C@@]2(C)Oc3c(C)c(O)c4c(O)c(c(/C=N/N5CCN(C)CC5)c(O)c4c3C2=O)NC(=O)/C(C)=C\C=C\[C@H](C)[C@H](O)[C@@H](C)[C@@H](O)[C@@H](C)[C@H](OC(C)=O)[C@@H]1C [rifampicin]
  antibiotic concentration at which the number of living E. coli DEB31 equals that of wild-type MG1655 at the standard concentration: 32 µg/mL
DEB31 / biofilm-deficient variants vs MG1655
  increase of antibiotics susceptibility versus wild-type MG1655: about 5 fold

## [H]/N=C(/N)N[C@H]1[C@H](O)[C@@H](O)[C@H](O[C@@H]2O[C@@H](C)[C@](O)(C=O)[C@H]2O[C@@H]2O[C@@H](CO)[C@H](O)[C@@H](O)[C@@H]2NC)[C@@H](N/C(N)=N\[H])[C@@H]1O [streptomycin]
  antibiotic concentration at which the number of living E. coli DEB31 equals that of wild-type MG1655 at the standard concentration: 8 µg/mL
